Measurements reported in ChEMBL document CHEMBL1201862, “PubChem BioAssay data set” (2004).
The source made the active and inactive calls.

Columns and labels:
Cytochrome P450 2C19 = Cytochrome P450 2C19 (Homo sapiens, UniProt P33261); experiment: qHTS Assay for Inhibitors and Substrates of Cytochrome P450 2C19. [Related pubchem assays: 410 ]; assay type: ADME; settings: read-out: Potency
Cytochrome P450 2C9 = Cytochrome P450 2C9 (Homo sapiens, UniProt P11712); settings: Potency
HeLa = experiment: HeLa cell cytotoxicity, dose response, cytotoxicity control, 24 h, cherry-picked samples (AID 504726); assay type: functional, cell-based; settings: Homo sapiens;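 also: potency for cytotoxicity as loss of luminescence signal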
ORF 73 = target: T1, ORF 73 (Human herpesvirus 8, UniProt O40947); experiment: inhibitors of C-LANA binding to LBS DNA, dose response, biochemical, fluorescence polarization, cherry-picked samples (AID 504725); parameters: species or system Human gammaherpesvirus 8;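 also: fluorescence polarization of a labeled DNA duplex reporting LANA DNA binding; potency is for inhibitors that block LANA binding to the DNA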
T1 sequence (O40947 whole entry): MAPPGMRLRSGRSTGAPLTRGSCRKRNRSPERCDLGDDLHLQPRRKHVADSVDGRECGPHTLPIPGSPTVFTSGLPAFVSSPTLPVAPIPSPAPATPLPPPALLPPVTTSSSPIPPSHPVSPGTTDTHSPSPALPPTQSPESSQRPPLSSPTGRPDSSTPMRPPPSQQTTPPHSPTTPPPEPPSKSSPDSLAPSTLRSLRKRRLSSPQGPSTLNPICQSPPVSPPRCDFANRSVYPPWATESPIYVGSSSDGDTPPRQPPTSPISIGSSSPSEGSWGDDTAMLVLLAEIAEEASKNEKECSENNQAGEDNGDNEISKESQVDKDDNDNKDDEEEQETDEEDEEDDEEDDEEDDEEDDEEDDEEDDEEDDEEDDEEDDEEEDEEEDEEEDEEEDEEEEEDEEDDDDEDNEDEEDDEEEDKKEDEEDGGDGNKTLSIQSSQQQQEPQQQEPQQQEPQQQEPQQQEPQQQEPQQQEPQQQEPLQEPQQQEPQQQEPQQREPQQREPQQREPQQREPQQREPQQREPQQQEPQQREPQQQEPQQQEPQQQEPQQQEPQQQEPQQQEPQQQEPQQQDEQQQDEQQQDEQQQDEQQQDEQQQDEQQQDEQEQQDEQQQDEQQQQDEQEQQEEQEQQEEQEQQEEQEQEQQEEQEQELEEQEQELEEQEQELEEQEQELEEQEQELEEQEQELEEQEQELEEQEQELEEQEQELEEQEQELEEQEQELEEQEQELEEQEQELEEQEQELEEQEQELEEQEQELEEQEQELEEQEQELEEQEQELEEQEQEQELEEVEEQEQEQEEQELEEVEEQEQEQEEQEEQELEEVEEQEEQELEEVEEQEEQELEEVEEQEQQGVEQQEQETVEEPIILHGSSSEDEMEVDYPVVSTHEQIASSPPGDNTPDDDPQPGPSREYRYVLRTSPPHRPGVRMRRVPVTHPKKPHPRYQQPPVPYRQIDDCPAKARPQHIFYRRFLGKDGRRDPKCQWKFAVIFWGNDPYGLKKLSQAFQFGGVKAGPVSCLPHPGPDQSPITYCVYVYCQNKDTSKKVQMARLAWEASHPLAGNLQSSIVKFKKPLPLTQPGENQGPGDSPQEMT

[1] = target: Histone-lysine N-methyltransferase NSD2 (Homo sapiens, UniProt O96028); assay type: biochemical
Hexokinase HKDC1 = target: T2, Hexokinase HKDC1 (Homo sapiens, UniProt Q2TB90); experiment: HKDC1 hexokinase inhibitors, dose response, biochemical, W721R variant (AID 504729); assay type: functional
T2 sequence (Q2TB90 whole entry): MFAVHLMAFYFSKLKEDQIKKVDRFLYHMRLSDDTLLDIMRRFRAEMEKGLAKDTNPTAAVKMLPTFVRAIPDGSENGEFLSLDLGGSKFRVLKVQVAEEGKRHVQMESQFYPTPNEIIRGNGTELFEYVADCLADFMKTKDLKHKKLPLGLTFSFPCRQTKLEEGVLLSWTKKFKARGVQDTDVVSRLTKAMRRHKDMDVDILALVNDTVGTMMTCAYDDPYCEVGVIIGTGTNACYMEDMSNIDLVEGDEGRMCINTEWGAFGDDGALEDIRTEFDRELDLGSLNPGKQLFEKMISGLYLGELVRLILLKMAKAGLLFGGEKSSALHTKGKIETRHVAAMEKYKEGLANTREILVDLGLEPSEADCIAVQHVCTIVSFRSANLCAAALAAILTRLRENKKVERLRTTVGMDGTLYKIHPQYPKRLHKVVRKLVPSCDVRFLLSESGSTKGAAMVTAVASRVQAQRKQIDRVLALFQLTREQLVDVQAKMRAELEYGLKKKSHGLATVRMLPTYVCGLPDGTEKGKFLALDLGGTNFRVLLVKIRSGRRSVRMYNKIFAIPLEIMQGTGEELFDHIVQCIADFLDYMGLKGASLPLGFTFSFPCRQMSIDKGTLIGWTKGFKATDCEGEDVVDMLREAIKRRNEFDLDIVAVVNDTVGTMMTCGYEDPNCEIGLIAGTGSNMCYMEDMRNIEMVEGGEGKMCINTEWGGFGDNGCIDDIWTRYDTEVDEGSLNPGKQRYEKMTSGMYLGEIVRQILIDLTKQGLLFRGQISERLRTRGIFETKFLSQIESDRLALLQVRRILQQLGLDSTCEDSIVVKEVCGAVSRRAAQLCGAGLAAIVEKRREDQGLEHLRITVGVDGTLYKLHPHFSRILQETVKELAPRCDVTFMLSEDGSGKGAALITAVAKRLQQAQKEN

[2] = target: Scavenger receptor class B member 1 (Mus musculus, UniProt Q61009); experiment: inhibitors of SR-BI mediated HDL lipid uptake, dose response, ldlA[mSR-BI] cells, fluorescence, cherry pick (AID 493194); assay type: functional, cell-based;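 also: cellular uptake of fluorescent DiI-labeled HDL measured as cell fluorescence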
Cytochrome P450 2D6 = Cytochrome P450 2D6 (Homo sapiens, UniProt P10635); experiment: qHTS Assay for Inhibitors and Substrates of Cytochrome P450 2D6. [Related pubchem assays: 410 ]; assay type: ADME; settings: read-out: Potency
Cytochrome P450 3A4 = Cytochrome P450 3A4 (Homo sapiens, UniProt P08684); settings: Potency;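 also: confirmatory qHTS run detecting inhibitors and substrates of CYP3A4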
[3] = inhibitors of firefly luciferase expression or activity, dose response, H4 neuroglioma cells, luminescence (AID 1990); assay type: functional, cell-based
[4] = Luminescence Cell-Based Dose Response HTS to Identify Inhibitors of 5'UTR Stem-Loop Driven Prion Protein mRNA Translation in H4 Neuroglioblastoma Cells. [Related pubchem assays: 1827 (Project Summary), 1813 (Primary HTS)]; assay type: functional
[5] = inhibitors of SNCA 5'UTR-driven reporter translation, confirmation, H4 neuroglioma cells, luminescence (AID 1988); assay type: functional, cell-based
INS1 = experiment: beta cell apoptosis inhibitors, cytokine rescue, dose response, luminescence, retest (AID 449756); assay type: functional, cell-based; settings: Rattus norvegicus;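 also: cell death triggered by IL-1 beta plus TNF-alpha plus IFN-gamma mixture; protective hits raise ATP signal compared with cytokine alone wells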
[6] = system: Streptococcus sp. 'group A'; experiment: growth inhibition of control SK(-) GAS strain, dose response, counter-screen for streptokinase expression inhibitor project, luminescence, kanamycin, BacTiterGlo, confirmation (AID 1900); assay type: functional, organism-based
[7] = target: Serine/threonine-protein phosphatase PP1-alpha catalytic subunit (Homo sapiens, UniProt P62136); experiment: PP1 phosphatase inhibitors, dose response, biochemical, fluorescence (AID 2403);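 also: phosphatase turnover of OMFP into fluorescent 3-O-methylfluorescein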
Streptokinase A = target: T3, Streptokinase A (Streptococcus pyogenes serotype M1, UniProt P10520); experiment: S. pyogenes streptokinase expression inhibitors, potency, dose response, plasminogen activation absorbance, OD405 (AID 1914); assay type: functional, Streptococcus pyogenes M1 GAS;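 also: secreted streptokinase activity via plasminogen activation per viability signal from cell pellet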
T3 sequence (P10520 whole entry): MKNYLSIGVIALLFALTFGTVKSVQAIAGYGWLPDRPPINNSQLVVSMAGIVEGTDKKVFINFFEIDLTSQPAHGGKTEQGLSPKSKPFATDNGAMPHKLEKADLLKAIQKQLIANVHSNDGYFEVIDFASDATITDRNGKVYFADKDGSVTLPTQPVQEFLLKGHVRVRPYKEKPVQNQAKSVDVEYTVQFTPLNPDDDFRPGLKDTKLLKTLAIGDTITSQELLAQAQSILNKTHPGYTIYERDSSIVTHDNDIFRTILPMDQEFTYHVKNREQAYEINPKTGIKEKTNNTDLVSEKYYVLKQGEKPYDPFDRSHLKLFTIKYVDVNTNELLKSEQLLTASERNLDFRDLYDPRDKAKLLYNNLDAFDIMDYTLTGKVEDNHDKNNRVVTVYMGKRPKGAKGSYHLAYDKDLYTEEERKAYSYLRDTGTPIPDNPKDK

[8] = target: Serine/threonine-protein phosphatase (Homo sapiens, UniProt Q9BPW0); experiment: Counterscreen for inhibitors of PP1: fluorescence-based biochemical high throughput dose response assay to identify inhibitors of Protein Phosphatase 5 (PP5). [Related pubchem assays: 2034 (Summary (PP5 inhibitors)), 1987 (PP5 inhibitors in singlate), 2235 (PP1 inhibitors in singlate)]
Streptococcus = experiment: Group A Streptococcus viability loss, dose response, counter-screen for streptokinase expression inhibitor project, luminescence, BacTiterGlo (AID 1915); assay type: functional, organism-based;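 also: potency for reduction of bacterial viability or growth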
[9] = THP-1 cell cytotoxicity, dose response, cytotoxicity control for non-replicating M. tuberculosis project (AID 489025); assay type: functional
[10] = Vero E6 cell cytotoxicity, dose response, cytotoxicity control for non-replicating M. tuberculosis project, secondary assay (AID 492998); assay type: functional, VeroE6; settings: Vero C1008
[11] = target: T4, Microphthalmia-associated transcription factor (Homo sapiens, UniProt O75030); experiment: TRPM1 promoter luciferase signal decrease, dose response, MITF inhibitor project, cell-based, SK-MEL-5, cherry-picked, set 3 (AID 493073); assay type: functional
T4 sequence (O75030 whole entry): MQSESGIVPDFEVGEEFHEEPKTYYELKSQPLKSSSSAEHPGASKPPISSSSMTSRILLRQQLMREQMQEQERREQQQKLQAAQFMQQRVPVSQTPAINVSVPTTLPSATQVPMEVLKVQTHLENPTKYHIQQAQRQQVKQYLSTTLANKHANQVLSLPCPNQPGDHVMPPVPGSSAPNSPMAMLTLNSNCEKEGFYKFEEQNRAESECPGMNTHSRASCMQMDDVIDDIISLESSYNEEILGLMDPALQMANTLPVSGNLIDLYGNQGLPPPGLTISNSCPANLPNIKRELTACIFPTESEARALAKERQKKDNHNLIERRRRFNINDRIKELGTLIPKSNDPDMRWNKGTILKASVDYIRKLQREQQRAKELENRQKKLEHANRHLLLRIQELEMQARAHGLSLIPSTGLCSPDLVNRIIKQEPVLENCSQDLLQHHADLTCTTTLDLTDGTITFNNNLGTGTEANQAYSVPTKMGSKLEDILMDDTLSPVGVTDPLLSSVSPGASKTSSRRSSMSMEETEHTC

cells = assay type: functional
Vero = experiment: cells; assay type: functional; settings: Chlorocebus sabaeus

Chain of Cytochrome P450 2C19 (P33261 whole entry): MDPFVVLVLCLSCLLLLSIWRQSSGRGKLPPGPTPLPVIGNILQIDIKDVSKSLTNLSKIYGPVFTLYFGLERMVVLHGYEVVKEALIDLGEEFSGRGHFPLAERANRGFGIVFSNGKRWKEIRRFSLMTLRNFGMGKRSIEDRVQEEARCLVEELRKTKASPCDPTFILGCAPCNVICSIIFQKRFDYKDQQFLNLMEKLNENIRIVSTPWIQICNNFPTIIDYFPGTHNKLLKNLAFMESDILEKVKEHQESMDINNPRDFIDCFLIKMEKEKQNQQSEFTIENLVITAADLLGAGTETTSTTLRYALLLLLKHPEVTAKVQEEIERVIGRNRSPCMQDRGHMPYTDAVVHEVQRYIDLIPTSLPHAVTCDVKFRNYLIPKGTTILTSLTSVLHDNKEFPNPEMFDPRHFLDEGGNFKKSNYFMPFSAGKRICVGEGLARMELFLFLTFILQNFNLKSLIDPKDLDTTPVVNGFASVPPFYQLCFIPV
Chain of Cytochrome P450 2C9 (P11712 whole entry): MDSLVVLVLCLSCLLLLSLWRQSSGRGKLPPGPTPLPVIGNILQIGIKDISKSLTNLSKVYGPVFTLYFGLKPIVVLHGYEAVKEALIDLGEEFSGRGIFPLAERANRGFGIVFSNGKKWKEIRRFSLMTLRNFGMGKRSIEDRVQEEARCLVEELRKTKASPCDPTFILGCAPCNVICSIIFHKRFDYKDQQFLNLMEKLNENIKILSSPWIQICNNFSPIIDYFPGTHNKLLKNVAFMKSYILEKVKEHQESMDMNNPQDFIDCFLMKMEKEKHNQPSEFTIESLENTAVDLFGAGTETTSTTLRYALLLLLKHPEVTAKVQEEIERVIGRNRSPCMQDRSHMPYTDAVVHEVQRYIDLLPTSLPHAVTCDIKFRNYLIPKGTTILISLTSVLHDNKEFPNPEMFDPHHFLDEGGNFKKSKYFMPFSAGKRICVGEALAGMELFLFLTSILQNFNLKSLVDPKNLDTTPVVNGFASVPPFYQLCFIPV
Chain of Scavenger receptor class B member 1 (Q61009 whole entry): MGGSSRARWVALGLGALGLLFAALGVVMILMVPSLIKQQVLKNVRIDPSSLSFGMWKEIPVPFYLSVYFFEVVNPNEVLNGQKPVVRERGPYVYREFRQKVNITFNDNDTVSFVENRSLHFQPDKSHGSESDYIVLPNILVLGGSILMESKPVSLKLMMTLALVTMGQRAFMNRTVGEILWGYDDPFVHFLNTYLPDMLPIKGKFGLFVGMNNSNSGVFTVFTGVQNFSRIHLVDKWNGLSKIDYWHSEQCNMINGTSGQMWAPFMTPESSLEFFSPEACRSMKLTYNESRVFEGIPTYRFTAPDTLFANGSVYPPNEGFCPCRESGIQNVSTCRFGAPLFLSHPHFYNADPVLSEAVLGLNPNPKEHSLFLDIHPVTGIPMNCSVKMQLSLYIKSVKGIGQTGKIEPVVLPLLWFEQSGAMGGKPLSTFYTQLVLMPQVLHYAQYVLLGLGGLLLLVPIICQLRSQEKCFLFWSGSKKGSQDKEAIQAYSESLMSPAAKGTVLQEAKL
Chain of Cytochrome P450 2D6 (P10635 whole entry): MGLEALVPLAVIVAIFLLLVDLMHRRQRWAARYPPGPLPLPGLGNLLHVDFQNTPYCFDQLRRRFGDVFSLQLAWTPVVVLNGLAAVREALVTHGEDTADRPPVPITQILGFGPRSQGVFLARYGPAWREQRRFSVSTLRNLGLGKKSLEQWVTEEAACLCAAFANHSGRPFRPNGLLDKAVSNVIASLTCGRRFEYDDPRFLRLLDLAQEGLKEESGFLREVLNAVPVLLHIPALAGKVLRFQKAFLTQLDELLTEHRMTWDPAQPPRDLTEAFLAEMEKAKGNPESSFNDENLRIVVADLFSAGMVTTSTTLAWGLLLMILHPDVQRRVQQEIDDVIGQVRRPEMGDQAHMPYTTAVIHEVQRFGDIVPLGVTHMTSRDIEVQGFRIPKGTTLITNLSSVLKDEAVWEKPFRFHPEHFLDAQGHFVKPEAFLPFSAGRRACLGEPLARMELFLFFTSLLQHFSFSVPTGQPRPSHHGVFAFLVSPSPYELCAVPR
Chain of Cytochrome P450 3A4 (P08684 whole entry): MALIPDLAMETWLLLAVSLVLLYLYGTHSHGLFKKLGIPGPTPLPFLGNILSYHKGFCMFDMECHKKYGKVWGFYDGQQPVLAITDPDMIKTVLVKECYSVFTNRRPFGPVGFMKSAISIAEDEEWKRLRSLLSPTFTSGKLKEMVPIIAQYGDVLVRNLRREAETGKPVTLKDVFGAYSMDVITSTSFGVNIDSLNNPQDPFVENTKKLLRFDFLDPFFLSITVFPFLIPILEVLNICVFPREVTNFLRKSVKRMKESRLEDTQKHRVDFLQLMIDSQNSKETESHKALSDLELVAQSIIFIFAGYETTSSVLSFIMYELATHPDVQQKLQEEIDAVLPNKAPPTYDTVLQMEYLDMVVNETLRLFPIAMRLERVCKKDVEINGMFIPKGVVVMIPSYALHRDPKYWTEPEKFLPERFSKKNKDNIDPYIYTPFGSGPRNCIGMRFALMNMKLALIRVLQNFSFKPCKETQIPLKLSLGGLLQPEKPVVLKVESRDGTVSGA
Chain of Histone-lysine N-methyltransferase NSD2 (O96028 whole entry): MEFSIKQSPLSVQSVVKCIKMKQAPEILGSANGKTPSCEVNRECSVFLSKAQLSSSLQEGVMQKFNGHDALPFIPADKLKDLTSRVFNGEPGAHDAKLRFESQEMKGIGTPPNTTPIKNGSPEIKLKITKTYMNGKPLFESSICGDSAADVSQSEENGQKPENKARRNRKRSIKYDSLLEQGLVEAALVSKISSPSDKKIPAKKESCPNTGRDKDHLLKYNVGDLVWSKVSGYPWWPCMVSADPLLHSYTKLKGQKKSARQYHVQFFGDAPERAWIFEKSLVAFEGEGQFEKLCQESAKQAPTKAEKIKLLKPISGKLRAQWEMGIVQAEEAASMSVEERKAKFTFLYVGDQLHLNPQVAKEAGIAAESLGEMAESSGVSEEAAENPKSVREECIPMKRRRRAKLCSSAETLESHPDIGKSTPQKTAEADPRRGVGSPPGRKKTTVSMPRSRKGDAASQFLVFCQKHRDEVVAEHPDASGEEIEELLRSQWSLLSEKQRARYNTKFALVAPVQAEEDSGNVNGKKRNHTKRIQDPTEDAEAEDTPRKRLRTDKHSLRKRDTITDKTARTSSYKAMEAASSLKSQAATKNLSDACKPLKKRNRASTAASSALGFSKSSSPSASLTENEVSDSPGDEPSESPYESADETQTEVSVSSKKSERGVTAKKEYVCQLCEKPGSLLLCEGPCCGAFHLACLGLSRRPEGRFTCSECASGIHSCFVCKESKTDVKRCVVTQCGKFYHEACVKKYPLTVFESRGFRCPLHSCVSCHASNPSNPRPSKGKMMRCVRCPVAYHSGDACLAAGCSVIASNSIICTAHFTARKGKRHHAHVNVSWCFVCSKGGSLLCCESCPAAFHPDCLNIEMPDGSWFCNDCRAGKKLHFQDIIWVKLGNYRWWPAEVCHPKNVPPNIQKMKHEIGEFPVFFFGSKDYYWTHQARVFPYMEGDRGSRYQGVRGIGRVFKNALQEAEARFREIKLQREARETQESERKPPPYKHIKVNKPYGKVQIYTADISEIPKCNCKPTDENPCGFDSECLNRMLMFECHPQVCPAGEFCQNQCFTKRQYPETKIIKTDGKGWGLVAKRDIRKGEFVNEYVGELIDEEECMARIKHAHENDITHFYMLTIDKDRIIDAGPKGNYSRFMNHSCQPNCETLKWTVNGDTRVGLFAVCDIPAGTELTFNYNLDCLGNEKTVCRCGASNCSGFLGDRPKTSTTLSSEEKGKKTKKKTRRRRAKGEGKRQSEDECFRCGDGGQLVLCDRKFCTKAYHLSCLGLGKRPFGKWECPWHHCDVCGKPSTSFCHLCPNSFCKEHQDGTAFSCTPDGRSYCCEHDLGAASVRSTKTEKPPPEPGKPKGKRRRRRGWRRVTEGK
Chain of Serine/threonine-protein phosphatase (Q9BPW0 whole entry): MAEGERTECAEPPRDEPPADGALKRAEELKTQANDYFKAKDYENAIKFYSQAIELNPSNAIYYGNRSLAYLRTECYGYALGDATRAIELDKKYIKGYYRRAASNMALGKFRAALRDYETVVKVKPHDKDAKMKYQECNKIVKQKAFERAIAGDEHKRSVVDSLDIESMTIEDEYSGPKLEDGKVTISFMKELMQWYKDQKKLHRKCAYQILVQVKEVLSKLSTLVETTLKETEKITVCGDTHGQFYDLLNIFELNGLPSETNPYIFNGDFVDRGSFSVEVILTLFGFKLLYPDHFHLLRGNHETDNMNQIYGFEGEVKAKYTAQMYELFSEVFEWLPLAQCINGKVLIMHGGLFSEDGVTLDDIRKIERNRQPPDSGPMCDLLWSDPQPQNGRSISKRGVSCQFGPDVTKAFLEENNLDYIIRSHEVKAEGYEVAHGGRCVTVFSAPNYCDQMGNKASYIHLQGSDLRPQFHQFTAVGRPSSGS
Chain of Serine/threonine-protein phosphatase PP1-alpha catalytic subunit (P62136 whole entry): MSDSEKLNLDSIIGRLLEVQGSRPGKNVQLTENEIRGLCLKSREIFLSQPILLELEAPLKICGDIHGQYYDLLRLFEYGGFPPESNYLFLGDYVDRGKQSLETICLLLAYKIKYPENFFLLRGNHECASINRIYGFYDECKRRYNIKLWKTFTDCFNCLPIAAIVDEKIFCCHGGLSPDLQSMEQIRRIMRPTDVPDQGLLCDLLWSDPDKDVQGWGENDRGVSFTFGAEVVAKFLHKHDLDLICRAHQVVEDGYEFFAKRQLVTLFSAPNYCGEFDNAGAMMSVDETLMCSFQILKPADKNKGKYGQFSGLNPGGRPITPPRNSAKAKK

SMILES: CC(=O)OCC1OC(C#Cc2ccc(C)cc2C)C=CC1OC(C)=O (centres undefined)
- AC50 (Cytochrome P450 2C19): 1.58 µM (inconclusive)
- AC50 (Cytochrome P450 2C9): 2.51 µM (inconclusive)

SMILES: O=C1CCCC(=O)C1=NNc1ccc(C(=O)O)cc1
- AC50 (HeLa): > 350 µM (inactive)
- AC50 (ORF 73): 30.2 µM (active)
- AC50 [1]: 10.3 µM (active)

SMILES: CCOC(=O)c1ccc(NC(=O)CSc2ccc(-c3ccccn3)nn2)cc1
- IC50 (Hexokinase HKDC1): 2.31 µM (active)

SMILES: O=C(c1cn(-c2ccccc2)nc1-c1cccc([N+](=O)[O-])c1)N1CCCCC1
- AC50 [2]: 23.6 µM (active)

SMILES: COC(=O)NC(/C(C(=O)OC)=C(\C)NCc1ccccc1)c1cccs1 (centres undefined)
- AC50 (Cytochrome P450 2C19): 0.0316 µM (inconclusive)
- AC50 (Cytochrome P450 2D6): 3.98 µM (inconclusive)
- AC50 (Cytochrome P450 3A4): 3.98 µM (inconclusive)
- AC50 (Cytochrome P450 2C9): 7.94 µM (inconclusive)

SMILES: O=C(Nc1cccc(NC(=O)c2cc([N+](=O)[O-])ccc2Cl)n1)c1cc([N+](=O)[O-])ccc1Cl
- EC50 [3]: 15.3 µM (active)
- EC50 [4]: > 60 µM (not active)
- EC50 [5]: 8.35 µM (active)
- AC50 [2]: 20.2 µM (active)
- AC50 (INS1): 6.4 µM (active)

SMILES: COc1ccc(/C=N/Nc2cc(C)nc(-n3nc(C)cc3C)n2)c(OC)c1
- EC50 [6]: 9.67 µM (active)
- IC50 [7]: 6.68 µM (active)
- EC50 (Streptokinase A): > 150 µM (not active)
- IC50 [8]: > 67 µM (not active)
- EC50 (Streptococcus): 13.8 µM (active)
- CC50 [9]: 5.91 µM (active)
- CC50 [10]: 7.06 µM (active)
- AC50 [11]: 10.4 µM (active)
- IC50 (cells): 0.24 µM (active)
- AC50 (INS1): 2.67 µM (active)
- CC50 (Vero): 19.8 µM (active)

SMILES: COc1ccc(-c2coc3cc(O)ccc3c2=O)cc1 [FORMONONETIN]
- AC50 (Cytochrome P450 2C19): 7.94 µM (inconclusive)
- AC50 (Cytochrome P450 2D6): 10 µM (inconclusive)
